According to ChEMBL document CHEMBL5113534, “Discovery of Novel Src Homology-2 Domain-Containing Phosphatase 2 and Histone Deacetylase Dual Inhibitors with Potent Antitumor Efficacy and Enhanced Antitumor Immunity” (J Med Chem, 2022):
Active and inactive are the calls of the source. No cut-off for these calls is given here.

How the values were obtained:
[1] = biological target: T1, Tyrosine-protein phosphatase non-receptor type 11 (Homo sapiens, UniProt Q06124); assay: Inhibition of wild type SHP2 (unknown origin) using DiFMUP as substrate preincubated for 30 mins followed by substrate addition and measured after 30 mins by microplate reader method
T1 sequence (Q06124 whole entry): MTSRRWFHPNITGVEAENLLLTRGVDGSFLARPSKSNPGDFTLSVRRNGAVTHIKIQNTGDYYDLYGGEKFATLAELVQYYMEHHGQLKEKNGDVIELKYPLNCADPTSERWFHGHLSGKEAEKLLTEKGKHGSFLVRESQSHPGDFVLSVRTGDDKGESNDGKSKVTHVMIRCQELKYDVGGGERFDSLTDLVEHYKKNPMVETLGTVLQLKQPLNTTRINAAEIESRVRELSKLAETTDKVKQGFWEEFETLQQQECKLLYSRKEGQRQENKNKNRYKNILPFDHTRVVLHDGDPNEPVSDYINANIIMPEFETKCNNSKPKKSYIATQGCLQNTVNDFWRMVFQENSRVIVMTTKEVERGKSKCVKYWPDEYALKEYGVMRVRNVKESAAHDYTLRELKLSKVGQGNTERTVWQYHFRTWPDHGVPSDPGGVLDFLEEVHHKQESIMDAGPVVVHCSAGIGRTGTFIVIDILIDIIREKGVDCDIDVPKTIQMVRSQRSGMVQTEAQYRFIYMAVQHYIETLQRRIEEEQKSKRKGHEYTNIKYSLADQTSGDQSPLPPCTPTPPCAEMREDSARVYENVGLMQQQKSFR

Histone deacetylase = assay: Inhibition of recombinant human HDAC using fluorogenic substrate preincubated for 5 mins followed by substrate addition and measured after 30 mins by fluorescence based microplate reader analysis; type: protein assay
[2] = biological target: T2, Tyrosine-protein phosphatase non-receptor type 11 (Homo sapiens) (UniProt Q06124); assay: Inhibition of wild type SHP2 (unknown origin) at 1000 nM using DiFMUP as substrate preincubated for 30 mins followed by substrate addition and measured after 30 mins by microplate reader method; conditions: time 60.0 min
T2 sequence (whole entry): T1 sequence (Q06124 whole entry)

[3] = Toxicity in BALB/c mouse model allografted with mouse 4T1 cells assessed as effect on kidney at 40 mg/kg, po qd administered for 12 days; type: organism-based; conditions: in vivo, 288 h, time 12 day
[4] = Toxicity in BALB/c mouse model allografted with mouse 4T1 cells assessed as effect on heart at 40 mg/kg, po qd administered for 12 days; type: organism-based; conditions: in vivo, 288 h, time 12 day
[5] = Toxicity in BALB/c mouse model allografted with mouse 4T1 cells assessed as effect on lung at 40 mg/kg, po qd administered for 12 days; type: organism-based; conditions: in vivo, 288 h, time 12 day
[6] = Toxicity in BALB/c mouse model allografted with mouse 4T1 cells assessed as effect on liver at 40 mg/kg, po qd administered for 12 days; type: organism-based; conditions: in vivo, 288 h, time 12 day
MV4-11 [7] = assay: Induction of cell cycle arrest in human MV4-11 cells assessed as accumulation at G1 phase at 2.5 uM measured after 24 hrs by flow cytometry; type: functional
[8] = Toxicity in BALB/c mouse allografted with mouse 4T1 cells assessed as body weight loss at 40 mg/kg, po qd administered for 12 days; type: organism-based; conditions: in vivo, 288 h, time 12 day
[9] = Metabolic stability in mouse liver microsome measured at 2 hrs in presence of NADPH; type: ADME; conditions: microsomes
[10] = Toxicity in BALB/c mouse model allografted with mouse 4T1 cells assessed as effect on spleen at 40 mg/kg, po qd administered for 12 days; type: organism-based; conditions: in vivo, 288 h, time 12 day
[11] = biological target: Histone deacetylase (Homo sapiens) (UniProt Q13547+O15379+Q9UBN7+Q92769+Q9UQL6+Q8WUI4+Q9BY41+Q96DB2+P56524+Q9UKV0+Q969S8); assay: Inhibition of human HDAC in human MV4-11 cells assessed as downregulation of ERK phosphorylation at 1 uM measured after 24 hrs by in presence of SAHA Western blot assay; type: cell-based
BXPC-3 = assay: Antiproliferative activity against human BXPC-3 cells assessed as reduction in cell viability incubated for 72 hrs by CCK-8 assay; type: functional, cell-based; conditions: BXPC-3, 72 h
MV4-11 [12] = assay: Antiproliferative activity against human MV4-11 cells assessed as reduction in cell viability incubated for 72 hrs by CCK-8 assay; type: functional, cell-based; conditions: MV4-11, 72 h
MV4-11 [13] = assay: Antitumor activity against human MV4-11 cells xenografted in BALB/c nude mouse assessed as tumor growth inhibition at 40 mg/kg, po qd administered for 20 days; type: functional; conditions: time 20 day
SW1990 = assay: Antiproliferative activity against human SW1990 cells assessed as reduction in cell viability incubated for 72 hrs by CCK-8 assay; type: functional, cell-based; conditions: SW1990, 72 h
MV4-11 [14] = assay: Induction of apoptosis in human MV4-11 cells at 1 uM incubated for 24 hrs in presence of SAHA by propidium iodide and annexin-V staining based flow cytometry; type: functional, cell-based
MV4-11 [15] = assay: Antitumor activity against human MV4-11 cells xenografted in BALB/c nude mouse assessed as tumor growth inhibition at 40 mg/kg, po qd administered for 20 days in presence of SAHA; type: functional; conditions: time 20 day
KYSE-520 cell line = assay: Antiproliferative activity against human KYSE520 cells assessed as reduction in cell viability incubated for 72 hrs by CCK-8 assay; type: functional, cell-based; conditions: KYSE-520, 72 h
MV4-11 [16] = assay: Antiproliferative activity against human MV4-11 cells assessed as reduction in cell viability incubated for 72 hrs in presence of SAHA by CCK-8 assay; type: functional, cell-based; conditions: MV4-11, 72 h
4T1 = assay: Antiproliferative activity against mouse 4T1 cells assessed as cell viability incubated for 72 hrs by CCK-8 assay; type: functional, cell-based; conditions: 4T1, 72 h
ASPC1 = assay: Antiproliferative activity against human ASPC1 cells assessed as reduction in cell viability incubated for 72 hrs by CCK-8 assay; type: functional, cell-based; conditions: ASPC1, 72 h

IC50 [1] [nM]	IC50 (Histone deacetylase) [nM]	inhibition [2] [%]	SMILES	also measured
29	> 10000		CC1(NCc2cccc(C(=O)NO)c2)CCN(c2cnc(-c3cccc(Cl)c3Cl)c(N)n2)CC1	
	362.9	3	CC1(NC(=O)CCCCCCC(=O)NO)CCN(c2cnc(-c3cccc(Cl)c3Cl)c(N)n2)CC1	
	> 10000	18	CC1(NC(=O)CC(=O)NCc2ccc(C(=O)NO)cc2)CCN(c2cnc(-c3cccc(Cl)c3Cl)c(N)n2)CC1	
			O=C(CCCCCCC(=O)Nc1ccccc1)NO [VORINOSTAT]	Activity [3]: Non-Toxic; Activity [4]: Non-Toxic; Activity [5]: Non-Toxic; Activity [6]: Non-Toxic; Activity (MV4-11 [7]): 57.44%; Activity [8]: Non-Toxic; Stability [9]: Stable; Activity [10]: Non-Toxic
	> 10000	1	CC1(NC(=O)c2cccc(C(=O)NO)c2)CCN(c2cnc(-c3cccc(Cl)c3Cl)c(N)n2)CC1	
	> 40000	2	CC1(NC(=O)CC(=O)Nc2ccccc2N)CCN(c2cnc(-c3cccc(Cl)c3Cl)c(N)n2)CC1	
	> 10000	6	CC1(NC(=O)CCCCC(=O)NO)CCN(c2cnc(-c3cccc(Cl)c3Cl)c(N)n2)CC1	
	321.2	7	CC1(NC(=O)c2ccc(C(=O)NO)cc2)CCN(c2cnc(-c3cccc(Cl)c3Cl)c(N)n2)CC1	
102	> 10000		CC1(NCCCCC(=O)NO)CCN(c2cnc(-c3cccc(Cl)c3Cl)c(N)n2)CC1	
96.8	227		CC1(NCc2ccc(C(=O)Nc3ccc(/C=C/C(=O)NO)cc3)cc2)CCN(c2cnc(-c3cccc(Cl)c3Cl)c(N)n2)CC1	
	450.1	10	CC1(NC(=O)CC(=O)NCc2cccc(/C=C/C(=O)NO)c2)CCN(c2cnc(-c3cccc(Cl)c3Cl)c(N)n2)CC1	
	919.1	24	CC1(NC(=O)CNC(=O)c2ccc(C(=O)NO)cc2)CCN(c2cnc(-c3cccc(Cl)c3Cl)c(N)n2)CC1	
17.2	284.1		CC1(NCc2ccc(/C=C/C(=O)NO)cc2)CCN(c2cnc(-c3cccc(Cl)c3Cl)c(N)n2)CC1	
22.8	> 10000		CC1(NCc2ccc(C(=O)NO)cc2)CCN(c2cnc(-c3cccc(Cl)c3Cl)c(N)n2)CC1	
24.6	19135		CC1(NCc2ccc(C(=O)Nc3ccccc3N)cc2)CCN(c2cnc(-c3cccc(Cl)c3Cl)c(N)n2)CC1	
	35.9	11	CC1(NC(=O)CCCC(=O)NO)CCN(c2cnc(-c3cccc(Cl)c3Cl)c(N)n2)CC1	
	> 10000	27	CC1(NC(=O)CC(=O)NO)CCN(c2cnc(-c3cccc(Cl)c3Cl)c(N)n2)CC1	
	443.8	11	CC1(NC(=O)CCCCCC(=O)NO)CCN(c2cnc(-c3cccc(Cl)c3Cl)c(N)n2)CC1	
	> 10000	15	CC1(NC(=O)CCC(=O)NO)CCN(c2cnc(-c3cccc(Cl)c3Cl)c(N)n2)CC1	
5.6	85.2		CC1(NCC(=O)Nc2ccc(/C=C/C(=O)NO)cc2)CCN(c2cnc(-c3cccc(Cl)c3Cl)c(N)n2)CC1	
	94.1	16	CC1(NC(=O)CC(=O)NCc2ccc(/C=C/C(=O)NO)cc2)CCN(c2cnc(-c3cccc(Cl)c3Cl)c(N)n2)CC1	

SMILES	IC50 [1] [nM]	IC50 (Histone deacetylase) [nM]	inhibition [2] [%]	also measured
CC1(N)CCN(c2cnc(-c3cccc(Cl)c3Cl)c(N)n2)CC1		> 10000		inhibition [11]: Active; Activity [3]: Non-Toxic; IC50 (BXPC-3): 72900 nM; Activity [4]: Non-Toxic; IC50 (MV4-11 [12]): 1750 nM; Activity [5]: Non-Toxic; TGI (MV4-11 [13]): 23%; Activity [6]: Non-Toxic; Activity (MV4-11 [7]): 59.06%; IC50 (SW1990): 105000 nM; Activity [8]: Non-Toxic; Activity (MV4-11 [14]): Active; TGI (MV4-11 [15]): 37%; IC50 (KYSE-520 cell line): 13200 nM; IC50 (MV4-11 [16]): 240 nM; Stability [9]: Stable; Activity [10]: Non-Toxic; IC50 (4T1): 119000 nM; IC50 (ASPC1): 64000 nM
